Experimental data taken from patent US11180504B2 (ORCHID PHARMA LTD., priority 2016, dated 2021).
≈ marks a conversion by molar mass, not a printed value. Where two headings read alike, the source gives them in different places.

Columns and labels:
[1] = system: methicillin-sensitive Staphylococcus aureus; assay: MIC by broth micro-dilution (CLSI), methicillin-sensitive S. aureus; type: cell-based; settings: MSSA S. aureus ATCC29213
[2] = system: carbapenem sensitive Escherichia coli; assay: MIC by broth micro-dilution (CLSI), carbapenem sensitive E. coli; type: cell-based
[3] = system: carbapenemase producing K. pneumoniae; assay: MIC by broth micro-dilution (CLSI), carbapenemase producing K. pneumoniae; type: cell-based, Klebsiella pneumoniae
[4] = system: carbapenem sensitive Pseudomonas aeruginosa; assay: MIC by broth micro-dilution (CLSI), carbapenem sensitive P. aeruginosa; type: cell-based
[5] = Staphylococcus aureus, ATCC 29213 / MSSA, read-out: MIC
[6] = Escherichia coli, ATCC25922, ESBL −ve E. coli ATCC25922, read-out: MIC
[7] = Klebsiella pneumoniae, ATCCBAA1705, KPC-2 K. pneumoniae ATCC BAA-1705, read-out: MIC
[8] = Pseudomonas aeruginosa, ATCC27853, Meropenem susceptible P. aeruginosa ATCC27853, read-out: MIC
[9] = KPC-2 K. pneumoniae ATCC BAA-1705
[10] = Meropenem susceptible P. aeruginosa ATCC27853

Compound	MIC [1, 5] [µg/mL]	MIC [2, 6] [µg/mL]	MIC [3, 7] [µg/mL]	MIC [4, 8] [µg/mL]	MIC [1] [µg/mL]	MIC ([2]; ESBL −ve E. coli ATCC25922) [µg/mL]	MIC [3, 9] [µg/mL]	MIC [4, 10] [µg/mL]
C[C@@H](NC(=O)C(F)F)[C@H]1C(=O)N2C(C(=O)O)=C(S[C@@H]3CN[C@H](CNS(=O)(=O)N4CC[C@@H](N)C4)C3)[C@H](C)[C@H]12 [Example 236]	2 (≈ 3.53 µM)	2 (≈ 3.53 µM)	4 (≈ 7.06 µM)	128 (≈ 226 µM)	–	–	–	–
C[C@@H](NC(=O)C(F)F)[C@H]1C(=O)N2C(C(=O)O)=C(S[C@@H]3CN[C@H](C(=O)C4C[C@@H](N)C[C@H]4CF)C3)[C@H](C)[C@H]12 (stereo partly shown) [Example 251]	0.5 (≈ 0.939 µM)	0.25 (≈ 0.469 µM)	0.5 (≈ 0.939 µM)	32 (≈ 60.1 µM)	–	–	–	–
C[C@@H](NC(=O)Cc1nnn(C)n1)[C@H]1C(=O)N2C(C(=O)O)=C(S[C@@H]3CN[C@H](C(=O)N4CC[C@@H](N)C4)C3)[C@H](C)[C@H]12 [Example 302]	2 (≈ 3.65 µM)	1 (≈ 1.83 µM)	16 (≈ 29.2 µM)	128 (≈ 234 µM)	–	–	–	–
C[C@@H](NC(=O)Cn1cnnn1)[C@H]1C(=O)N2C(C(=O)O)=C(S[C@@H]3CN[C@H](C(=O)N4CCC(C(=O)N5CC[C@@H](N)C5)CC4)C3)[C@H](C)[C@H]12 [Example 428, (4R,5S,6R)-6-((R)-1-(2-(1H-tetrazol-1-yl)acetamido)ethyl)-3-((3S,5S)-5-(4-((R)-3-aminopyrrolidine-1-carbonyl)piperidine-1-carbonyl)pyrrolidin-3-ylthio)-4-methyl-7-oxo-1-azabicyclo[3.2.0]hept-2-ene-2-carboxylic acid]	4 (≈ 6.2 µM)	0.5 (≈ 0.775 µM)	4 (≈ 6.2 µM)	2 (≈ 3.1 µM)	–	–	–	–
CCOC(=O)c1nnnn1CC(=O)N[C@H](C)[C@H]1C(=O)N2C(C(=O)O)=C(S[C@@H]3CN[C@H](C(=O)N(C)C)C3)[C@H](C)[C@H]12 [Example 338, (4R,5S,6R)-3-((3S,5S)-5-(dimethylcarbamoyl)pyrrolidin-3-ylthio)-6-((R) - 1-(2-(5-(ethoxycarbonyl) - 1H-tetrazol-1-yl)acetamido)ethyl)-4-methyl-7-oxo-1-azabicyclo[3.2.0]hept-2-ene-2-carboxylic acid]	8 (≈ 14.2 µM)	2 (≈ 3.54 µM)	32 (≈ 56.7 µM)	128 (≈ 227 µM)	–	–	–	–
C[C@@H](NC(=O)Cn1cnnn1)[C@H]1C(=O)N2C(C(=O)O)=C(S[C@@H]3CN[C@H](C(=O)N4CC[C@@H](N)C4)C3)[C@H](C)[C@H]12 [Example 298, (4R,5S,6R)-6-((R)-1-(2-(1H-tetrazol-1-yl)acetamido)ethyl)-3-((3S,5S)-5-((R)-3-aminopyrrolidine-1-carbonyl)pyrrolidin-3-ylthio)-4-methyl-7-oxo-1-azabicyclo[3.2.0]hept-2-ene-2-carboxylic acid]	1 (≈ 1.87 µM)	0.125 (≈ 0.234 µM)	1 (≈ 1.87 µM)	1 (≈ 1.87 µM)	–	–	–	–
C[C@@H](NC(=O)Cn1cnnn1)[C@H]1C(=O)N2C(C(=O)O)=C(S[C@@H]3CN[C@H](C(=O)N4C[C@@H](N)[C@@H](O)C4)C3)[C@H](C)[C@H]12 [Example 400, (4R,5S,6R)-6-((R)-1-(2-(1H-tetrazol-1-yl)acetamido)ethyl)-3-((3S,5S)-5-((3R,4S)-3-amino-4-hydroxypyrrolidine-1-carbonyl)pyrrolidin-3-ylthio)-4-methyl-7-oxo-1-azabicyclo[3.2.0]hept-2-ene-2-carboxylic acid]	4 (≈ 7.28 µM)	0.125 (≈ 0.227 µM)	1 (≈ 1.82 µM)	1 (≈ 1.82 µM)	–	–	–	–
C[C@@H](NC(=O)Cn1cnnn1)[C@H]1C(=O)N2C(C(=O)O)=C(S[C@@H]3CN[C@H](C(=O)Nc4ccncc4)C3)[C@H](C)[C@H]12 [Example 402, (4R,5S,6R)-6-((R)-1-(2-(1H-tetrazol-1-yl)acetamido)ethyl)-4-methyl-7-oxo-3-((3S,5S)-5-(pyridin-4-ylcarbamoyl)pyrrolidin-3-ylthio)-1-azabicyclo[3.2.0]hept-2-ene-2-carboxylic acid]	1 (≈ 1.85 µM)	0.06 (≈ 0.111 µM)	1 (≈ 1.85 µM)	32 (≈ 59.1 µM)	–	–	–	–
C[C@@H](NS(C)(=O)=O)[C@H]1C(=O)N2C(C(=O)O)=C(S[C@@H]3CN[C@H](C(=O)N(C)C)C3)[C@H](C)[C@H]12 [Example 1, (4R,5S,6S)-3-((3S,5S)-5-(Dimethylcarbamoyl)pyrrolidin-3-ylthio)-4-methyl-6-((R)-1-(methylsulfonamido)ethyl)-7-oxo-1-azabicyclo[3.2.0]hept-2-ene-2-carboxylic acid]	8 to 16 (≈ 17.4 to 34.7 µM)	0.25 to 1 (≈ 0.543 to 2.17 µM)	–	32 to 64 (≈ 69.5 to 139 µM)	–	–	–	–

The next lines start with the values.

MIC [1, 5] [µg/mL]	MIC [2, 6] [µg/mL]	MIC [3, 7] [µg/mL]	MIC [4, 8] [µg/mL]	MIC [1] [µg/mL]	MIC ([2]; ESBL −ve E. coli ATCC25922) [µg/mL]	MIC [3, 9] [µg/mL]	MIC [4, 10] [µg/mL]	Compound
8 (≈ 13.6 µM)	0.5 (≈ 0.849 µM)	4 (≈ 6.79 µM)	2 (≈ 3.4 µM)	–	–	–	–	C[C@@H](NC(=O)Cn1cnnn1)[C@H]1C(=O)N2C(C(=O)O)=C(S[C@@H]3CN[C@H](C(=O)N4C[C@H]5C[C@H](N)C[C@@]5(N)C4)C3)[C@H](C)[C@H]12 [Example 574, (4R,5S,6R)-6-((R)-1-(2-(1H-tetrazol-1-yl)acetamido)ethyl)-3-((3S,5S)-5-((3aS,5S,6aR)-3a,5-diaminooctahydrocyclo-penta[c]pyrrole-2-carbonyl)pyrrolidin-3-ylthio)-4-methyl-7-oxo-1-azabicyclo[3.2.0]hept-2-ene-2-carboxylic acid]
4 (≈ 6.79 µM)	0.25 (≈ 0.425 µM)	2 (≈ 3.4 µM)	2 (≈ 3.4 µM)	–	–	–	–	C[C@@H](NC(=O)Cn1cnnn1)[C@H]1C(=O)N2C(C(=O)O)=C(S[C@@H]3CN[C@H](C(=O)N4CC(N5CCNCC5)C4)C3)[C@H](C)[C@H]12 [Example 429, (4R,5S,6R)-6-((R)-1-(2-(1H-tetrazol-1-yl)acetamido)ethyl)-4-methyl-7-oxo-3-((3S,5S)-5-(3-(piperazin-1-yl)azetidine-1-carbonyl)pyrrolidin-3-ylthio)-1-azabicyclo[3.2.0]hept-2-ene-carboxylic acid]
–	–	–	–	2 (≈ 3.49 µM)	0.25 (≈ 0.436 µM)	1 (≈ 1.74 µM)	1 (≈ 1.74 µM)	C[C@@H](NC(=O)Cn1cnnn1)[C@H]1C(=O)N2C(C(=O)O)=C(S[C@@H]3CN[C@H](C(=O)N4CCC5CNCCC54)C3)[C@H](C)[C@H]12 (stereo partly drawn) [Example 439, (4R,5S,6R)-6-((R)-1-(2-(1H-tetrazol-1-yl)acetamido)ethyl)-4-methyl-3-((3S,5S)-5-(octahydro-1H-pyrrolo[3,2-c]pyridine-1-carbonyl)pyrrolidin-3-ylthio)-7-oxo-1-azabicyclo[3.2.0]hept-2-ene-2-carboxylic acid]
–	–	4 (≈ 8.63 µM)	–	4 (≈ 8.63 µM)	0.125 (≈ 0.27 µM)	–	16 (≈ 34.5 µM)	C[C@@H](NC(=O)Cn1cnnn1)[C@H]1C(=O)N2C(C(=O)O)=C(SC3COC4(CNC4)C3)[C@H](C)[C@H]12 (single isomer, unassigned) [Example 557]
4 (≈ 7.11 µM)	0.5 (≈ 0.889 µM)	2 (≈ 3.55 µM)	4 (≈ 7.11 µM)	–	–	–	–	C[C@@H](NC(=O)Cn1cnnn1)[C@H]1C(=O)N2C(C(=O)O)=C(S[C@@H]3CN[C@H](C(=O)N4C[C@H](N)C[C@@H]4CN)C3)[C@H](C)[C@H]12 [Example 473, (4R,5S,6R)-6-((R)-1-(2-(1H-tetrazol-1-yl)acetamido)ethyl)-3-((3S,5S)-5-((2R,4R)-4-amino-2-(aminomethyl)pyrrolidine-1-carbonyl)pyrrolidin-3-ylthio)-4-methyl-7-oxo-1-azabicyclo[3.2.0]hept-2-ene-2-carboxylic acid]
4 (≈ 7.1 µM)	0.25 (≈ 0.444 µM)	4 (≈ 7.1 µM)	1 (≈ 1.77 µM)	–	–	–	–	C[C@@H](NC(=O)Cn1cnnn1)[C@H]1C(=O)N2C(C(=O)O)=C(S[C@@H]3CN[C@H](C(=O)N4CC(O)C(CN)C4)C3)[C@H](C)[C@H]12 (single isomer, unassigned) [Example 510]
2 (≈ 3.1 µM)	0.125 (≈ 0.194 µM)	1 (≈ 1.55 µM)	4 (≈ 6.19 µM)	–	–	–	–	C[C@@H](NC(=O)Cn1cnnn1)[C@H]1C(=O)N2C(C(=O)O)=C(S[C@@H]3CN[C@H](C(=O)N4CC5C[C@@H](NC(=N)N)C[C@]5(CO)C4)C3)[C@H](C)[C@H]12 (stereo partly drawn) [Example 585, (4R,5S,6R)-6-((R)-1-(2-(1H-tetrazol-1-yl)acetamido)ethyl)-3-((3S,5S)-5-((3aR,5R)-5-guanidino-3a-(hydroxymethyl)octahydrocyclopenta[c]pyrrole-2-carbonyl)pyrrolidin-3-ylthio)-4-methyl-7-oxo-1-azabicyclo[3.2.0]hept-2-ene-2-carboxylic acid]
2 (≈ 3.47 µM)	0.25 (≈ 0.434 µM)	1 (≈ 1.74 µM)	2 (≈ 3.47 µM)	–	–	–	–	C[C@@H](NC(=O)Cn1cnnn1)[C@H]1C(=O)N2C(C(=O)O)=C(S[C@@H]3CN[C@H](C(=O)N4CCC(CCN)CC4)C3)[C@H](C)[C@H]12 [Example 480]
–	–	–	–	4 (≈ 6.78 µM)	0.25 (≈ 0.424 µM)	2 (≈ 3.39 µM)	–	C[C@@H](NC(=O)Cn1cnnn1)[C@H]1C(=O)N2C(C(=O)O)=C(S[C@@H]3CN[C@H](C(=O)N4CC5CC(CO)NC5C4)C3)[C@H](C)[C@H]12 (single isomer, unassigned) [Example 552]
–	–	–	–	4 (≈ 7.1 µM)	0.5 (≈ 0.887 µM)	2 (≈ 3.55 µM)	–	C[C@@H](NC(=O)Cn1cnnn1)[C@H]1C(=O)N2C(C(=O)O)=C(S[C@@H]3CN[C@H](C(=O)N4CCOC(CN)C4)C3)[C@H](C)[C@H]12 (stereo in doubt) [Example 461, (4R,5S,6R)-6-((R)-1-(2-(1H-tetrazol-1-yl)acetamido)ethyl)-3-((3S,5S)-5-((S)-2-(aminomethyl)morpholine-4-carbonyl)pyrrolidin-3-ylthio)-4-methyl-7-oxo-1-azabicyclo[3.2.0]hept-2-ene-2-carboxylic acid]
